Reference: the NIST ThermoML archive (doi:10.1016/j.jct.2015.08.023)
“And” between values parts separate entries of the source, which are not always exact repeats. Identical values can stand only once.

Conditions: Liquid, Closed cell (Static) method

CNCCCN [N-methyl-1,3-diaminopropane]
Conditions | vapor or sublimation pressure
273 K | 0.089 kPa
273.15 K | 0.089 kPa
283.15 K | 0.204 kPa
283.37 K | 0.205 kPa
293.15 K | 0.4319 kPa
293.47 K | 0.431 kPa
303.11 K | 0.861 kPa
303.15 K | 0.8539 kPa
313.15 K | 1.591 kPa
313.18 K | 1.607 kPa
323.15 K | 2.814 kPa
323.26 K | 2.83 kPa and 2.828 kPa
333.15 K | 4.755 kPa
333.23 K | 4.764 kPa
333.25 K | 4.764 kPa
343.15 K | 7.716 kPa
343.26 K | 7.745 kPa
343.28 K | 7.742 kPa
343.3 K | 7.74 kPa
352.54 K | 11.85 kPa
353.15 K | 12.08 kPa
353.24 K | 12.14 kPa
362.82 K | 18.1 kPa
362.84 K | 18.11 kPa
363.15 K | 18.31 kPa
372.74 K | 26.61 kPa
372.76 K | 26.61 kPa
382.84 K | 38.34 kPa
382.87 K | 38.35 kPa
392.92 K | 53.96 kPa
392.95 K | 53.96 kPa
402.59 K | 73.4 kPa
402.61 K | 73.41 kPa
422.46 K | 129.8 kPa and 129.79 kPa
422.51 K | 129.84 kPa
432.4 K | 169.97 kPa and 170.02 kPa

CCN(CC)CCCN [N,N-diethylpropane-1,3-diamine]
Conditions | vapor or sublimation pressure
263.16 K | 0.014 kPa
273.05 K | 0.034 kPa
273.15 K | 0.0338 kPa
283.15 K | 0.0768 kPa
283.27 K | 0.077 kPa
293.15 K | 0.1631 kPa
293.22 K | 0.163 kPa
303.14 K | 0.326 kPa
303.15 K | 0.3257 kPa
303.16 K | 0.325 kPa
313.15 K | 0.6164 kPa
313.16 K | 0.616 kPa
313.18 K | 0.616 kPa
323.15 K | 1.112 kPa
323.16 K | 1.114 kPa and 1.112 kPa
333.15 K | 1.922 kPa
333.18 K | 1.94 kPa
343.15 K | 3.199 kPa
343.21 K | 3.234 kPa
353.15 K | 5.143 kPa
353.19 K | 5.161 kPa and 5.162 kPa
363.15 K | 8.017 kPa
363.25 K | 7.965 kPa

CN(C)CCCN [N,N-dimethyl-1,3-propanediamine]
Conditions | vapor or sublimation pressure
273.04 K | 0.183 kPa
283.06 K | 0.381 kPa
283.15 K | 0.3844 kPa
293.13 K | 0.749 kPa
293.15 K | 0.7536 kPa
303.15 K | 1.397 kPa
303.16 K | 1.396 kPa
313.15 K | 2.464 kPa
313.21 K | 2.478 kPa
323.15 K | 4.162 kPa
323.27 K | 4.186 kPa
333.15 K | 6.763 kPa
333.32 K | 6.828 kPa
343.15 K | 10.61 kPa
343.37 K | 10.73 kPa and 10.72 kPa
353.15 K | 16.15 kPa
353.41 K | 16.31 kPa
363.15 K | 23.9 kPa
363.44 K | 24.1 kPa
